# Data reported in patent US11465994B2, “MGluR7 agonist compounds for treating mGluR7-regulated diseases, disorders, or conditions” (Takeda Pharmaceutical Company Limited, priority 2016, dated 2022).
# Key:
# mGluR7 [1] = target: T1, mGluR7 (Homo sapiens, UniProt Q14831); assay: cAMP CRE-luciferase reporter gene assay (Steady Glo) in CHO-CRE-luc cells stably expressing human mGluR7; assay type: cell-based; design: expressed in transfected cells; conditions: reduction of forskolin stimulated cAMP (luminescence); CHO CRE-luc human mGluR7; read-out: EC50
# Experimental: Compound activities were determined in CHO-CRE-luc cells stably expressing hu/mo mGluR7, using a cAMP reporter gene assay (Steady Glo, Promega). Selectivity was assessed in stable CHO-mGluR4 cells (DiscoverX) and CHO-mGluR8 transients using an HTRF cAMP assay (Cisbio).
# The ability of the test compounds to activate mGluR7 was determined by their ability to reduce forskolin stimulated cAMP production. Compounds were assessed in a CRE-directed luciferase reporter gene assay, using a stable CHO cell line expressing the CRE-luc reporter and human mGluR7 genes. In this cell line, production of cAMP stimulated the transcription of the luciferase gene and luciferase activity was then measured in a luminescent enzyme assay (Steady Glo assay; Promega E2550). Activation of mGluR7 decreased the forskolin stimulated luminescence signal.
# The day prior to the assay, compounds were serially diluted in DMSO (100× final assay concentration (FAC)), in 384-well plates which were then stored in the dark at room temperature (RT) until use. Cells were seeded at 12.5 k/well in white, clear bottom 384-well plates (Corning 3707) and left for one hour at RT followed by an overnight incubation (37° C.). The following day, the DMSO compound plate was diluted 1:20 (5×FAC) in Opti-MEM I (Life Technologies 11058021). The growth media was removed from the cell plate and replaced with 15 μl Opti-MEM I, followed by a 5 μl addition from the 5× compound plate and a fifteen minute incubation (37° C.). Forskolin (Sigma F3917) was then added to the wells (5 μl of 2.5 μM) and the plate was incubated for five hours (37° C.). During this incubation, the Steady Glo Substrate reagent was warmed to 37° C. Aliquots (11 ml; stored at −20° C.) of this reagent were prepared by dissolving the contents of 1 vial of lyophilised substrate in 100 ml Steady-Glo buffer. A 25 μl addition of the substrate was made to all wells and the plate was incubated for thirty minutes at RT, on a plate shaker (300 rpm; in the dark). Luminescence was then measured using the EnVision Multilabel Reader (Perkin Elmer).
# Compound activity was examined using a 10-point, half log concentration-response range and each concentration was tested in duplicate wells. Luminescence values were normalised to ‘maximum’ (forskolin alone) and ‘minimum’ (forskolin in the presence of tool mGluR7 agonist) controls.
# mGluR7 [2] = target: T1, mGluR7; assay: Kinetic impedance assay (desensitization) in stable CHO-mGluR7 cells, response to tool activator CPD A after pre-treatment; assay type: cell-based; conditions: pre-treatment 1 hour (EC80), FIG. 1B
# Experimental: Stable CHO-mGluR7 cells (DiscoverX) were pre-incubated with compounds (EC80, 1 h), washed and after 30 min, impedance changes upon addition of a tool mGluR7 activator (CPD A) were determined (Cellkey, Molecular Devices).
# T1 sequence (Q14831 35-915): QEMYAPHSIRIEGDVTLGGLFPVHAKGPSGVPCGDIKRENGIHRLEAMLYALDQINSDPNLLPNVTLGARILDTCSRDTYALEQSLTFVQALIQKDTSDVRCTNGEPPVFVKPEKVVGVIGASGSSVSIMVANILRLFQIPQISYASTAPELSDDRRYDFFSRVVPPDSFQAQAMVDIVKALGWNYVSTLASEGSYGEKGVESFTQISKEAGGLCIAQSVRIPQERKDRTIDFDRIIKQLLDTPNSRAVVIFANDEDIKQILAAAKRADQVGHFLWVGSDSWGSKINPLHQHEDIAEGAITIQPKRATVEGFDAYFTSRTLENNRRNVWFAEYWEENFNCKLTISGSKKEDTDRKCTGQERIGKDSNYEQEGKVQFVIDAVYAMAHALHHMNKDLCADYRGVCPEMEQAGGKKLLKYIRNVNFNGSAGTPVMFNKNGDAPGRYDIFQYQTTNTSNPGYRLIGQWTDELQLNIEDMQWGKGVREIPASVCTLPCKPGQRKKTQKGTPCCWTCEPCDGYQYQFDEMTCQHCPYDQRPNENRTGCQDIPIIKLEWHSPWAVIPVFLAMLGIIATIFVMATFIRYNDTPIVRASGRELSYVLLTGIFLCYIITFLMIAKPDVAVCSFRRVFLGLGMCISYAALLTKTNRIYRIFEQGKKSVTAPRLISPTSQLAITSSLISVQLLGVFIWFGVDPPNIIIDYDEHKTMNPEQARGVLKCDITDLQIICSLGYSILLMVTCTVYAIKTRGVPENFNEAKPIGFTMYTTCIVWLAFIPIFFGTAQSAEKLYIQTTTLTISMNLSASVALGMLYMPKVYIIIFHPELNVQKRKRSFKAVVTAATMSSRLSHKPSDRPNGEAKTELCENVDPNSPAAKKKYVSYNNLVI
EC50 (mGluR7 [1]) [µM],SMILES,other results
0.008,"CO[C@@H]1c2ccccc2OC[C@H]1NC(=O)C1c2ccccc2CC(=O)N1Cc1ccccn1 (relative stereo) [Example 29, N-((trans)-4-methoxy-3,4-dihydro-2H-1-benzopyran-3-yl)-3-oxo-2-[(pyridin-2-yl)methyl]-1,2,3,4-tetrahydroisoquinoline-1-carboxamide]",–
0.011,"CO[C@@H]1c2ccccc2OC[C@H]1NC(=O)C(OCC1CC1)c1ccc(F)cc1 (relative stereo) [Example 30, 2-(cyclopropylmethoxy)-2-(4-fluorophenyl)-N-((trans)-4-methoxy-3,4-dihydro-2H-1-benzopyran-3-yl)acetamide]",–
0.3,"CO[C@@H]1c2ccccc2OC[C@H]1NC(=O)C(c1ccc(F)cc1F)n1ccccc1=O (relative stereo) [Example 32, 2-(2,4-difluorophenyl)-N-((trans)-4-methoxy-3,4-dihydro-2H-1-benzopyran-3-yl)-2-(2-oxo-1,2-dihydropyridin-1-yl)acetamide]",–
0.096,"C[C@H](C(=O)NC1COc2ccccc2C1O)c1ccccc1 (single isomer, unassigned) [Example 2]",–
0.101,"C[C@H](C(=O)NC1COc2ccccc2C1O)c1ccccc1 (single isomer, unassigned) [Example 6]",–
0.911,"C[C@H](C(=O)NC1COc2ccccc2C1(C)O)c1ccccc1 (single isomer, unassigned) [Example 7]",–
0.015,"COC1c2ccccc2OCC1NC(=O)[C@@H]1c2ccccc2CC(=O)N1CC1CC1 (single isomer, unassigned) [Example 18]",–
0.006,"COC1c2ccccc2OCC1NC(=O)[C@@H]1c2ccccc2CC(=O)N1CC1CC1 (single isomer, unassigned) [Example 19]",–
0.023,"COC1c2ccccc2OCC1NC(=O)[C@@H]1c2ccccc2CC(=O)N1CCCF (single isomer, unassigned) [Example 26]",–
0.7,"CNC(=O)c1ccccc1C(=O)NC1c2ccccc2OCC1NC(=O)[C@@H](C)c1ccc(F)cc1 (single isomer, unassigned) [Example 33]",–
0.097,"CNC(=O)c1ccccc1C(=O)NC1c2ccccc2OCC1NC(=O)[C@@H](C)c1ccc(F)cc1 (single isomer, unassigned) [Example 34]",–
0.033,"C[C@H](C(=O)NC1COc2ccccc2C1N1CCC1)c1ccc(F)cc1 (single isomer, unassigned) [Example 36]",–
0.023,"C[C@H](C(=O)NC1COc2ccccc2C1N1CCOCC1)c1ccc(F)cc1 (single isomer, unassigned) [Example 39]",–
1.2,"C[C@H](C(=O)NC1COc2ccc(F)cc2C1O)c1ccccc1 (stereo in doubt) [Example 3, (2S)—N-((cis)-6-fluoro-4-hydroxy-3,4-dihydro-2H-1-benzopyran-3-yl)-2-phenylpropanamide]",–
0.014,"COC1c2ccccc2OCC1NC(=O)[C@@H]1c2ccccc2CC(=O)N1CC1CC1 (stereo in doubt) [Example 15, (1S)-2-(cyclopropylmethyl)-N-((trans)-4-methoxy-3,4-dihydro-2H-1-benzopyran-3-yl)-3-oxo-1,2,3,4-tetrahydroisoquinoline-1-carboxamide]",–

# The next lines start with the molecule.
SMILES,EC50 (mGluR7 [1]) [µM],other results
"CO[C@@H]1c2ccccc2OC[C@H]1NC(=O)C(c1ccc(F)cc1)N1CC(OC(F)(F)F)C1 (relative stereo) [Example 24, 2-(4-fluorophenyl)-N-((trans)-4-methoxy-3,4-dihydro-2H-1-benzopyran-3-yl)-2-[3-(trifluoromethoxy)azetidin-1-yl]acetamide]",0.02,–
"CO[C@@H]1c2ccccc2OC[C@H]1NC(=O)C(c1ccc(F)cc1F)N1CC(OC(F)(F)F)C1 (relative stereo) [Example 25, 2-(2,4-difluorophenyl)-N-((trans)-4-methoxy-3,4-dihydro-2H-1-benzopyran-3-yl)-2-[3-(trifluoromethoxy)azetidin-1-yl]acetamide]",0.027,–
"CO[C@@H]1c2ccccc2OC[C@H]1NC(=O)C1c2ccccc2CC(=O)N1CC1CCOCC1 (relative stereo) [Example 28, N-((trans)-4-methoxy-3,4-dihydro-2H-1-benzopyran-3-yl)-2-[(oxan-4-yl)methyl]-3-oxo-1,2,3,4-tetrahydroisoquinoline-1-carboxamide]",0.014,–
"CO[C@@H]1c2ccccc2OC[C@H]1NC(=O)C(Oc1ccnc(C)n1)c1ccc(F)cc1F (relative stereo) [Example 31, 2-(2,4-difluorophenyl)-N-((trans)-4-methoxy-3,4-dihydro-2H-1-benzopyran-3-yl)-2-[(2-methylpyrimidin-4-yl)oxy]acetamide]",0.054,–
"C[C@H](C(=O)NC1COc2ccccc2C1O)c1ccccc1 (single isomer, unassigned) [Example 1]",0.874,–
"C[C@H](C(=O)NC1COc2ccccc2C1O)c1ccccc1 (single isomer, unassigned) [Example 5]",0.068,–
"C[C@H](C(=O)NC1COc2ccccc2C1(C)O)c1ccccc1 (single isomer, unassigned) [Example 8]",0.274,–
"CNC1c2ccccc2OCC1NC(=O)[C@@H](C)c1ccccc1 (single isomer, unassigned) [Example 9]",4.99,–
"CNC1c2ccccc2OCC1NC(=O)[C@@H](C)c1ccccc1 (single isomer, unassigned) [Example 10]",1.65,–
"COC1c2ccccc2OCC1NC(=O)[C@@H](C)c1ccccc1 (single isomer, unassigned) [Example 11]",0.055,–
"C[C@H](C(=O)NC1COc2ccccc2C1S(C)(=O)=O)c1ccccc1 (single isomer, unassigned) [Example 12]",0.007,–
"C[C@H](C(=O)NC1COc2ccccc2C1S(C)(=O)=O)c1ccccc1 (single isomer, unassigned) [Example 13]",0.026,–
"C[C@H](C(=O)NC1COc2ccccc2C1S(C)(=O)=O)c1ccc(F)cc1 (single isomer, unassigned) [Example 17]",0.028,–
"C[C@H](C(=O)NC1COc2ccccc2C1S(C)(=O)=O)c1ccc(Cl)cc1 (single isomer, unassigned) [Example 20]",0.01,–
"C[C@H](C(=O)NC1COc2ccccc2C1S(C)(=O)=O)c1ccc(Cl)cc1 (single isomer, unassigned) [Example 21]",0.033,–
"CNC1c2ccccc2OCC1NC(=O)[C@@H](C)c1ccc(F)cc1 (single isomer, unassigned) [Example 22]",0.069,–
"CNC1c2ccccc2OCC1NC(=O)[C@@H](C)c1ccc(F)cc1 (single isomer, unassigned) [Example 23]",0.11,–
"COC1c2ccccc2OCC1NC(=O)[C@@H]1c2ccccc2CC(=O)N1CCCF (single isomer, unassigned) [Example 27]",0.022,–
"C[C@H](C(=O)NC1COc2ccccc2C1N1CCCC1)c1ccc(F)cc1 (single isomer, unassigned) [Example 35]",0.062,–
"C[C@H](C(=O)NC1COc2ccccc2C1N(C)C)c1ccc(F)cc1 (single isomer, unassigned) [Example 37]",0.055,–
"C[C@H](C(=O)NC1COc2ccccc2C1N1CCC(F)(F)C1)c1ccc(F)cc1 (single isomer, unassigned) [Example 38]",0.03,–
"CNC1c2ccccc2OCC1NC(=O)[C@@H](C)c1ccccc1 (stereo in doubt) [Example 14, (2S)—N-[(trans)-4-(methylamino)-3,4-dihydro-2H-1-benzopyran-3-yl]-2-phenylpropanamide]",0.065,–
"Cl.Cl.c1ccc(C(NCCNC(c2ccccc2)c2ccccc2)c2ccccc2)cc1 [AMN082, N,N′-dibenzhydrylethane-1,2-diamine dihydrochloride]",–,EC50 of subsequent response to CPD A increased (mGluR7 [2]): 5 fold; Emax (mGluR7 [2]; read-out: Emax of subsequent response to CPD A reduced by): 75%
"C[C@H](C(=O)NC1COc2ccccc2C1=O)c1ccccc1 (stereo partly drawn) [Example 4, (2S)—N-(4-oxo-3,4-dihydro-2H-1-benzopyran-3-yl)-2-phenylpropanamide]",0.86,–
